Laboratory results as given in patent publication US20040147605A1, “Drug preparations” (priority 2001, published 2004).

System: male Hartley guinea pigs
Assay: Antitussive effect test: capsaicin-induced cough in guinea pigs with SO2-induced respiratory tract inflammation
Format: in vivo, guinea pig
Conditions: for Frequency of cough: capsaicin 10^-6 mol/l spray, coughs counted over 15 minutes, control group 22.4 ± 0.8; for Antitussive effect (in words): summary of Table 1, administered alone or in combination
Description: The synergetic effect of using fudosteine and an antitussive compound in combination was examined according to the following method.
Five male Hartley guinea pigs for one group, each having a weight of 300-400 g, were used as test animals. According to the method of Miyata et al. (Arch. Int. Pharmacodyn. Ther., vol. 304, p. 277, 1990), the guinea pigs were exposed to SO2 gas using an exposure apparatus for two hours a day in eight consecutive days to cause respiratory tract inflammation. The samples of which the components and dose are shown in Table 1 were orally administered before exposure to SO2 gas once a day in eight consecutive days since the start date of exposure. The guinea pigs were confined in a chamber without being anesthetized. On the date following the last SO2 exposure date, capsaicin (10^−6 mol/l) was sprayed over the chamber for two minutes using a ultrasonic nebulizer (TUR-3200, Nihon Kohden Corporation) to cause cough in the guinea pigs. […] The frequency of cough during this period was counted.

| SMILES | Frequency of cough (dextromethorphan 150 mg/kg orally once a day for 8 days) | Frequency of cough (dextromethorphan 300 mg/kg orally once a day for 8 days) | Antitussive effect (in words) | Frequency of cough (fudosteine 30 mg/kg orally once a day for 8 days) |
| --- | --- | --- | --- | --- |
| COc1ccc2c(c1)[C@]13CCCC[C@@H]1[C@H](C2)N(C)CC3 [Dextromethorphan] | 13.6 ± 1.0 | 10.2 ± 0.6 ^$ | exhibited an antitussive effect | – |
| N[C@@H](CSCCCO)C(=O)O [Fudosteine, S-(3-hydroxypropyl)-L-cysteine] | – | – | did not exhibit an antitussive effect | 22.6 ± 1.1 |
